Reference: patent US4002740A, “Tridecapeptide compositions and methods” (priority 1975, dated 1977)
“Also recorded” adds a separate entry of the source. Ends that are not written are not given here.

What was measured:
[1] = test system: CR+ B cell differentiation from CR- B cell precursors (spleen cell populations from nu/nu mice); experiment: induction in vitro of CR+ B cell differentiation from CR- B cell precursors (binding of sheep erythrocytes coated with antibody and complement); format: cell-based
Procedure: (§1) to determine the activity and characteristics of the polypeptide, determinations were carried out on healthy 5-6 week old nu/nu mice of both sexes, the mice being bred on a BALB/c background (thymocytes expressing Thy-1.2 surface antigen) and maintained under conventional conditions. For the antisera, anti Thy-1.2 sera were prepared in Thy-1 congenic mice.
(§2) For the induction of in vitro of Thy-1^+ T cell or CR^+ B cell differentiation, the induction of thymocyte differentiation from prothymocytes in vitro was performed as described by Komuro and Boyse, (Lancet 1, 740, 1973), using the acquisition of Thy-1.2 as a marker of T cell differentiation. The induction of CR^+ B cell differentiation from CR^- B cell precursors in vitro was performed under similar conditions using as the assay criterion, the capacity of CR^+ B cells to bind sheep erythrocytes coated with subagglutinating quantities of rabbit antibody and nonlytic complement. Spleen cell populations from healthy nu/nu mice fractionated on discontinuous bovine serium albumin gradients were used as the source of both precursor types (Thy-1 and […]) because they have few or no Thy-1^+ cells and low numbers of CR^+ cells.

[2] = test system: Thy-1+ T cell differentiation from prothymocytes (spleen cell populations from nu/nu mice); experiment: induction in vitro of Thy-1+ T cell differentiation from prothymocytes (acquisition of Thy-1.2 as marker); format: cell-based; details: for induction of T cell differentiation (qualitative): induction assay in vitro, no concentration stated
Procedure: as §1, §2

Sequence: GEQRKDVYVQLYL [tridecapeptide, H2 N--Gly--Glu--Gln--Arg--Lys--Asp--Val--Tyr--Val--Gln--Leu--Tyr--Leu--COOH]
- induction of differentiation of CR+ B cells ([1]; in vitro, concentrations 0.01 ng to 10 μg/ml): does not induce; also recorded: did not induce
- induction of CR+ B cell differentiation (qualitative) ([1]; induction assay in vitro, no concentration stated, listed as synthetic peptide): did not induce
- concentration from which the polypeptide is maximally active ([2]; in vitro): about 100 nanogram per ml
- concentration from which the polypeptide is active ([2]; in vitro, lower end of active concentrations): 1 nanogram per ml
- induction of T cell differentiation (qualitative) ([2]; listed as polypeptide): inducing the differentiation of T-lymphocytes
- induction of T cell differentiation (qualitative) ([2]; listed as synthetic peptide): induced the differentiation
